pIC50, pKi: −log10 of the molar value. Non-standard residues stand in square brackets, D forms with d. Residues, ends and D or L forms follow the SMILES beside them. ξ: configuration not given here. *: point of attachment. Trp(5-NO2) = N[C@@H](Cc1c[nH]c2ccc([N+](=O)[O-])cc12)C(=O)O; Gly(2-naphthyl) = N[C@H](C(=O)O)c1ccc2ccccc2c1; ξR = N=C(N)NCCCC(N)C(=O)O; 2Abz = Nc1ccccc1C(=O)O; PhAc = O=C(Cc1ccccc1)*

Series [1] deals with T1, Genome polyprotein (West Nile virus, UniProt P06935). Description: Inhibition of West Nile virus NS2B-NS3 protease preincubated for 1 hr followed by Pyr-RTKR-AMC addition and measured after 30 mins by fluorescence method.
The next series deals with thrombin (prothrombin) (Homo sapiens, UniProt P00734). Description: Inhibition of human thrombin at 25 uM preincubated for 15 mins followed by Boc-Val-Pro-Arg-AMC addition and measured for 10 mins by continuous fluorimetric assay relative to control. The conditions noted are these: human thrombin enzyme, probe Boc-Val-Pro-Arg-AMC.
Series [2] deals with T2, Nonstructural protein 3 (Zika virus, UniProt A0A024AXB9). Description: Inhibition of Zika virus unlinked NS2B-NS3 protease preincubated for 5 mins followed by benzoyl-nKRR-AMC addition and measured every 60 secs for 12 mins by fluorescence method.
For series [3], the target named is T1, Genome polyprotein. The series is described as follows: Inhibition of West Nile virus NS2B (47 residues)-NS3 (184 residues) protease expressed in Escherichia coli BL21 (DE3) preincubated for 15 mins followed by Benzoyl-Nle-KRR-AMC addition and measured after 30 mins by fluorescence method.
Series [4] addresses T2, Nonstructural protein 3. Description: Inhibition of Zika virus IbH_30656 NS2B (45 to 96 residues)-NS3 (1 to 177 residues) protease expressed in Escherichia coli BL21/Rosetta (DE3) cells preincubated for 60 mins followed by Bz-nKRR-AMC addition and measured at 60 secs intervals over 10 mins by fluorescence method.
Series [5] deals with T2, Nonstructural protein 3. Description: Inhibition of N-terminal His6-SUMO tagged Zika virus Puerto Rico NS2B-NS3 linked protease expressed in Escherichia coli BL21 Codon Plus (DE3) cells preincubated for 10 mins followed by pyr-TGKR-AMC addition and measured every 5 secs for 2 mins by fluorometric enzyme assay.
Series [6] deals with T2, Nonstructural protein 3. Description: Inhibition of N-terminal His6-SUMO tagged Zika virus Puerto Rico NS2B-NS3 unlinked protease expressed in Escherichia coli BL21 Codon Plus (DE3) cells preincubated for 90 mins followed by pyr-TGKR-AMC addition and measured every 5 secs for 2 mins by fluorometric enzyme assay.
Series [7] addresses T2, Nonstructural protein 3. The series is described as follows: Inhibition of N-terminal His6-SUMO tagged Zika virus Puerto Rico NS2B-NS3 unlinked protease expressed in Escherichia coli BL21 Codon Plus (DE3) cells preincubated for 10 mins followed by pyr-TGKR-AMC addition and measured every 5 secs for 2 mins by fluorometric enzyme assay.
Series [8] concerns the target T3, Genome polyprotein (dengue virus type 2, UniProt P29990). The series is described as follows: Inhibition of Dengue virus serotype 2 NS2B(40 residues)-NS3 (185 residues) protease preincubated for 30 mins followed by ABz-nKRR-AMC addition and measured after 30 mins by fluorescence method.
Series [9] has as its target T1, Genome polyprotein. The series is described as follows: Inhibition of West Nile virus protease.
Series [10] addresses Genome polyprotein. The series is described as follows: Inhibition of Dengue virus serotype 1 NS2B-NS3 protease preincubated for 20 mins followed by Abz-RRRRSAG-nY-NH2 addition and measured for 60 mins by fluorescence method. The arrangement: species or system dengue virus type 1.
Target sequence in this assay (P29990 1346-1475 limits assumed): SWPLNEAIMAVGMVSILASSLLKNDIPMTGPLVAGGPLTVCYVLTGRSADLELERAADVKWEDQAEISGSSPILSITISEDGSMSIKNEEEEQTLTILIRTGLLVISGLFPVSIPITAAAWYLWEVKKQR
Target sequence in this assay (P29990 1476-2093 limits assumed): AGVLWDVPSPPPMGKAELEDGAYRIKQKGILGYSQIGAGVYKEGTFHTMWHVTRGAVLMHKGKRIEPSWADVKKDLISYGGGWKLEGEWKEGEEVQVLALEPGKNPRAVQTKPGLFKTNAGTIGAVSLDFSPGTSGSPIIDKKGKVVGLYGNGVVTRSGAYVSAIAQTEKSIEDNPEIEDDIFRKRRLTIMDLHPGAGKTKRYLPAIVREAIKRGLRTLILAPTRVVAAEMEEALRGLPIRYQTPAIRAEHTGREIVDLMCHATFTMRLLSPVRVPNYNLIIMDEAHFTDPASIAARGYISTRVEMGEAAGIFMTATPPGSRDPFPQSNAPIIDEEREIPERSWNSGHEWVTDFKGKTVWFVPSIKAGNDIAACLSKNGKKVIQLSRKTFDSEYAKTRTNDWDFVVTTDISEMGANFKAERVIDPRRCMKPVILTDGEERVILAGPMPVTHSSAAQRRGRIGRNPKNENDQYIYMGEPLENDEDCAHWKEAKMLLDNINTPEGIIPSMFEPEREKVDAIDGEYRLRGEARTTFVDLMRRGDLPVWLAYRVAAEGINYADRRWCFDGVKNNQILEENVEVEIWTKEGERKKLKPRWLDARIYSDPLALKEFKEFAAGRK
Series [11] deals with T3, Genome polyprotein. The series is described as follows: Inhibition of Dengue virus serotype 2 NS2B-NS3 protease preincubated for 20 mins followed by Abz-RRRRSAG-nY-NH2 addition and measured for 60 mins by fluorescence method.
Series [12] addresses T1, Genome polyprotein. Description: Inhibition of West Nile virus NS2B-NS3 protease preincubated for 10 mins followed by Np-KKR-pNA addition and measured every 5 secs for 2 mins by fluorescence method.

T3 sequence (P29990 1346-1475 limits assumed): as the sequence (P29990 1346-1475 limits assumed) above
T3 sequence (P29990 1476-2093 limits assumed): as the sequence (P29990 1476-2093 limits assumed) above
T2 sequence (A0A024AXB9 whole entry): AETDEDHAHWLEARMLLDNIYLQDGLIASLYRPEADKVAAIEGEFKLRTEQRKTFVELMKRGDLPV
T1 sequence (P06935 1371-1501 limits assumed): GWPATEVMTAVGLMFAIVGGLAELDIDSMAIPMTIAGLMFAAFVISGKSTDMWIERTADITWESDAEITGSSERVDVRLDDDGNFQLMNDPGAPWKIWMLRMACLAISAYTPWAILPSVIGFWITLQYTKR
T1 sequence (P06935 1502-2120 limits assumed): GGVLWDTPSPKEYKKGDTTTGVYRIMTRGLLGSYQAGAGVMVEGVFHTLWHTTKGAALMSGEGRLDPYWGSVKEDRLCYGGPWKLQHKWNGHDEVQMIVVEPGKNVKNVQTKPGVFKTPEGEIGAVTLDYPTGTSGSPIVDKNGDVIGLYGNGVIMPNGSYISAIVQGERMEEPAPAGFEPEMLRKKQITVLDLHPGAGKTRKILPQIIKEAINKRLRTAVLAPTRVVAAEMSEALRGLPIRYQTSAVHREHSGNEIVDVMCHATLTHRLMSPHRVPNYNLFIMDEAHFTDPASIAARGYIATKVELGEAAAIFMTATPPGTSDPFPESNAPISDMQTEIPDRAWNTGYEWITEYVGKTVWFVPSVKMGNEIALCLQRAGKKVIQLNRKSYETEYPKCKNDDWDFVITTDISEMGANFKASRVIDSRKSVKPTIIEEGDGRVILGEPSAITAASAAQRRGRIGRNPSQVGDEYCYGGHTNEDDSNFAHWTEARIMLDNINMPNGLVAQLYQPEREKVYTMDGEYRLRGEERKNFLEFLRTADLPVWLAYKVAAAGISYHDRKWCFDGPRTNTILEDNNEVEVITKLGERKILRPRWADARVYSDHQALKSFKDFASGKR

With `CC(=O)N[C@@H](CCCCN)C(=O)N[C@@H](CCCCN)C(=O)NCCCCNC(=N)N`, on Genome polyprotein [1], the pIC50 was 4.73 and the pKi is 5.31.
In the case of `CCCC[C@H](NC(=O)[C@H](CCCCN)NC(=O)[C@H](CCCNC(=N)N)NC(=O)c1ccc(/C=C(\C#N)C(=O)NC2CC2)cc1)C(N)=O`, the inhibition at 10 min, 25 µM on thrombin (prothrombin) amounted to 13.4%.
With `N=C(N)NCCC[C@H](NC(=O)[C@H](CCCCN)NC(=O)[C@H](CCCCN)NC(=O)Cc1ccc(CNC(=N)N)cc1)C(N)=O`, on Nonstructural protein 3 [2], the pIC50 is 5.80 and the pKi was 6.22.
On Genome polyprotein [3], `N=C(N)NCCCC(C=O)NC(=O)[C@H](CCCCN)NC(=O)c1ncc[nH]1` (stereo not given in full) had a pKi of 6.92.
Molecule `[H]/N=C(\N)NCCC[C@@H](C=O)NC(=O)[C@H](CCCCN)NC(C)=O` gave a pIC50 at Nonstructural protein 3 [4] of 6.55.
With `N=C(N)NCCC[C@H](NC(=O)c1nccs1)C(=O)N[C@@H](CCCCN)C(=O)N[C@H](C(N)=O)c1ccc(OCc2ccc(C(F)(F)F)cc2)cc1`, the results for the pIC50 on Nonstructural protein 3 [5], on Nonstructural protein 3 [6] and at Nonstructural protein 3 [7] were 5.98, 5.87 and 5.97, respectively.
On to `N=C(N)NCCC[C@H](NC(=O)Cc1ccc(CNC(=N)N)cc1)C(=O)N[C@@H](CCCNC(=N)N)C(=O)N[C@@H](CCCNC(=N)N)C(=O)NCc1ccc(C(=N)N)cc1`, for which, at Nonstructural protein 3 [2], the pIC50 was 5.96 and the pKi was 6.37.
On to `N=C(N)NCCC[C@@H](C=O)NC(=O)[C@H](CCCCN)NC(=O)[C@H](CCCCN)NC(=O)Cc1ccc(-c2ccccc2)cc1`, for which the pIC50 was 4.91 against Genome polyprotein [8] and 7.25 against Genome polyprotein [9].
`CC(=O)N[C@@H](CCCNC(=N)N)C(=O)N[C@@H](CCCNC(=N)N)C(=O)N[C@@H](CCCNC(=N)N)C(=O)N[C@@H](CCCNC(=N)N)C(=O)N[C@@H](Cc1cnc[nH]1)C(=O)N[C@@H](Cc1c[nH]c2ccccc12)C(=O)N[C@@H](CS)C(=O)N[C@@H](Cc1c[nH]c2ccccc12)C(N)=O` (Ac-RRRRHWCW-NH2): the pKi on Genome polyprotein [10] was 6.40; on Genome polyprotein [11], 6.52.
Regarding `N=C(N)NCCCC(NC(=O)[C@H](CCCCN)NC(=O)[C@H](CCCCN)NC(=O)[C@@H](NC(=O)[C@H](Cc1c[nH]cn1)NC(=O)CNC(=O)CN)c1ccc2ccccc2c1)C(N)=O` (stereo not given in full) (H-GGH[Gly(2-naphthyl)]KK[ξR]-NH2), the pKi on Genome polyprotein [12] was 5.10.
On to `CC(C)C[C@H](NC(=O)[C@H](Cc1cnc[nH]1)NC(=O)[C@H](CCCNC(=N)N)NC(=O)[C@H](CCCNC(=N)N)NC(=O)[C@H](CCCNC(=N)N)NC(=O)[C@@H](N)CCCNC(=N)N)C(=O)N[C@@H](CS)C(=O)N[C@@H](Cc1c[nH]c2ccccc12)C(N)=O` (H-RRRRHLCW-NH2), for which the results for the pKi at Genome polyprotein [10] and on Genome polyprotein [11] were 6.52 and 6.40, respectively.
The corresponding values for `N=C(N)NCCC[C@H](NC(=O)[C@H](CCCNC(=N)N)NC(=O)[C@H](CCCNC(=N)N)NC(=O)[C@@H](N)CCCNC(=N)N)C(=O)N[C@@H](Cc1cnc[nH]1)C(=O)N[C@@H](Cc1c[nH]c2ccccc12)C(=O)N[C@@H](CS)C(=O)N[C@@H](Cc1c[nH]c2ccccc12)C(N)=O` (H-RRRRHWCW-NH2) are 6.40 and 6.52.
Turning to `CC(C)C[C@H](NC(=O)[C@H](Cc1cnc[nH]1)NC(=O)[C@H](CCCNC(=N)N)NC(=O)[C@H](CCCNC(=N)N)NC(=O)[C@H](CCCNC(=N)N)NC(=O)[C@H](CCCNC(=N)N)NC(=O)c1ccccc1N)C(=O)N[C@@H](CS)C(=O)N[C@@H](Cc1c[nH]c2ccc([N+](=O)[O-])cc12)C(N)=O` (H-[2Abz]RRRRHLC[Trp(5-NO2)]-NH2), the values for the negative-log Ki (pKi) on Genome polyprotein [10] and at Genome polyprotein [11] were 6.52 and 5.96, respectively.
On to `N=C(N)NCCC[C@H](NC(=O)[C@H](CCCCN)NC(=O)[C@H](CCCCN)NC(=O)Cc1ccccc1)C(=O)NCC(=O)NCC(N)=O` (PhAc-KKRGG-NH2), for which, at Nonstructural protein 3 [2], the negative logarithm of the IC50 (pIC50) is 5.92 and the pKi is 6.33.

Values taken from ChEMBL document CHEMBL4354802, “Peptide derivatives as inhibitors of NS2B-NS3 protease from Dengue, West Nile, and Zika flaviviruses” (Bioorg Med Chem, 2019).
